Measured values: ChEMBL document CHEMBL5724914, “Linking interpersonal differences in gut microbiota composition and drug biotransformation activity” (2024)

How the values were obtained:
[1] = (§1) The drug is tested on Z-024 corresponding to pig gut metagenome with ENA study accession number: PRJEB37062 and ENA sample accession number: ERS12561823 for biotransformation under anaerobic condition. The drug concentrations were measured over 9 timepoints collected between 0 and 24 hours of incubation by liquid-chromatography-coupled mass spectrometry (LC–MS); conditions: 2 µM
[2] = as §1, with “Z-022” for “Z-024”, “mouse” for “pig”, “ERS12561821” for “ERS12561823”; conditions: 2 µM
[3] = as §1, with “Z-019” for “Z-024”, “rat” for “pig”, “ERS12561818” for “ERS12561823”; conditions: 2 µM
[4] = as §1, with “Z-016” for “Z-024”, “mouse” for “pig”, “ERS12561815” for “ERS12561823”; conditions: 2 µM
[5] = as §1, with “Z-014” for “Z-024”, “rat” for “pig”, “ERS12561814” for “ERS12561823”; conditions: 2 µM
[6] = as §1, with “Z-013” for “Z-024”, “rabbit” for “pig”, “ERS12561813” for “ERS12561823”; conditions: 2 µM
[7] = as §1, with “Z-011” for “Z-024”, “mouse” for “pig”, “ERS12561811” for “ERS12561823”; conditions: 2 µM
[8] = as §1, with “Z-007” for “Z-024”, “rat” for “pig”, “ERS12561807” for “ERS12561823”; conditions: 2 µM
[9] = as §1, with “Z-001” for “Z-024”, “mouse” for “pig”, “ERS12561801” for “ERS12561823”; conditions: 2 µM
[10] = as §1, with “WLS-077” for “Z-024”, “human” for “pig”, “ERS12561750” for “ERS12561823”; conditions: 2 µM
[11] = as §1, with “WLS-052” for “Z-024”, “human” for “pig”, “ERS12561747” for “ERS12561823”; conditions: 2 µM
[12] = human gut metagenome, 24 h, 2 µM
[13] = human gut metagenome, 24 h, 2 µM; remark: listed apart in the source
[14] = human gut metagenome, 24 h, 2 µM; remark: listed apart in the source
[15] = human gut metagenome, 24 h, 2 µM; remark: listed apart in the source
[16] = human gut metagenome, 24 h, 2 µM; remark: listed apart in the source
[17] = human gut metagenome, 24 h, 2 µM; remark: listed apart in the source
[18] = human gut metagenome, 24 h, 2 µM; remark: listed apart in the source
[19] = human gut metagenome, 24 h, 2 µM; remark: listed apart in the source
[20] = human gut metagenome, 24 h, 2 µM; remark: listed apart in the source
Further: call rule not given here.

Row | SMILES | Bacterial Biotransformation [1] | Bacterial Biotransformation [2] | Bacterial Biotransformation [3] | Bacterial Biotransformation [4] | Bacterial Biotransformation [5] | Bacterial Biotransformation [6] | Bacterial Biotransformation [7] | Bacterial Biotransformation [8] | Bacterial Biotransformation [9] | Bacterial Biotransformation [10] | Bacterial Biotransformation [11] | Bacterial Biotransformation [12] | Bacterial Biotransformation [13] | Bacterial Biotransformation [14] | Bacterial Biotransformation [15] | Bacterial Biotransformation [16] | Bacterial Biotransformation [17] | Bacterial Biotransformation [18] | Bacterial Biotransformation [19] | Bacterial Biotransformation [20]
1 | Nc1ccc(/N=N/c2ccccc2)c(N)n1 [PHENAZOPYRIDINE] | Compound metabolized | Compound metabolized | Compound metabolized | Compound metabolized | Compound metabolized | Compound metabolized | Compound metabolized | Compound metabolized | Compound metabolized | Compound metabolized | Compound metabolized | Compound metabolized | Compound metabolized | Compound metabolized | Compound metabolized | Compound metabolized | Compound metabolized | Compound metabolized | Compound metabolized | Compound metabolized
2 | CC(=O)OCC(=O)[C@@]12N=C(C)O[C@@H]1C[C@H]1[C@@H]3CCC4=CC(=O)C=C[C@]4(C)[C@H]3[C@@H](O)C[C@@]12C [DEFLAZACORT] | Compound metabolized | Compound metabolized | Compound NOT metabolized | Compound metabolized | Compound metabolized | Compound metabolized | Compound metabolized | Compound metabolized | Compound metabolized | Compound metabolized | Compound metabolized | Compound metabolized | Compound metabolized | Compound metabolized | Compound metabolized | Compound metabolized | Compound metabolized | Compound metabolized | Compound metabolized | Compound metabolized
3 | Cc1ccc(-c2cc(C(F)(F)F)nn2-c2ccc(S(N)(=O)=O)cc2)cc1 [CELECOXIB] | Compound NOT metabolized | Compound NOT metabolized | Compound NOT metabolized | Compound NOT metabolized | Compound NOT metabolized | Compound NOT metabolized | Compound NOT metabolized | Compound NOT metabolized | Compound NOT metabolized | Compound metabolized | Compound metabolized | Compound metabolized | Compound NOT metabolized | Compound NOT metabolized | Compound metabolized | Compound metabolized | Compound metabolized | Compound NOT metabolized | Compound metabolized | Compound metabolized
4 | CCCc1nn(C)c2c(=O)[nH]c(-c3cc(S(=O)(=O)N4CCN(C)CC4)ccc3OCC)nc12.O=C(O)CC(O)(CC(=O)O)C(=O)O [SILDENAFIL CITRATE] | Compound metabolized | Compound metabolized | Compound NOT metabolized | Compound NOT metabolized | Compound NOT metabolized | Compound NOT metabolized | Compound NOT metabolized | Compound NOT metabolized | Compound NOT metabolized | Compound NOT metabolized | Compound NOT metabolized | Compound NOT metabolized | Compound metabolized | Compound NOT metabolized | Compound metabolized | Compound NOT metabolized | Compound NOT metabolized | Compound NOT metabolized | Compound metabolized | Compound metabolized
5 | CC(C)c1c(C(=O)Nc2ccccc2)c(-c2ccccc2)c(-c2ccc(F)cc2)n1CC[C@@H](O)C[C@@H](O)CC(=O)O [ATORVASTATIN] | Compound NOT metabolized | Compound NOT metabolized | Compound NOT metabolized | Compound NOT metabolized | Compound NOT metabolized | Compound NOT metabolized | Compound NOT metabolized | Compound NOT metabolized | Compound NOT metabolized | Compound metabolized | Compound metabolized | Compound metabolized | Compound NOT metabolized | Compound metabolized | Compound NOT metabolized | Compound NOT metabolized | Compound metabolized | Compound NOT metabolized | Compound metabolized | Compound metabolized
6 | O=C1NCC2(CCN(CCc3ccccc3)CC2)O1 [FENSPIRIDE] | Compound NOT metabolized | Compound metabolized | Compound NOT metabolized | Compound NOT metabolized | Compound NOT metabolized | Compound NOT metabolized | Compound NOT metabolized | Compound NOT metabolized | Compound metabolized | Compound NOT metabolized | Compound NOT metabolized | Compound NOT metabolized | Compound NOT metabolized | Compound NOT metabolized | Compound NOT metabolized | Compound NOT metabolized | Compound metabolized | Compound NOT metabolized | Compound metabolized | Compound NOT metabolized
7 | O=C(CCCN1CCC(O)(c2ccc(Cl)cc2)CC1)c1ccc(F)cc1 [HALOPERIDOL] | Compound NOT metabolized | Compound NOT metabolized | Compound NOT metabolized | Compound NOT metabolized | Compound NOT metabolized | Compound NOT metabolized | Compound NOT metabolized | Compound NOT metabolized | Compound NOT metabolized | Compound NOT metabolized | Compound NOT metabolized | Compound metabolized | Compound NOT metabolized | Compound NOT metabolized | Compound NOT metabolized | Compound NOT metabolized | Compound NOT metabolized | Compound NOT metabolized | Compound metabolized | Compound metabolized
8 | CN1C(=O)CC(C)(c2ccccc2)C1=O (stereo not given) [METHSUXIMIDE] | Compound metabolized | Compound metabolized | Compound NOT metabolized | Compound NOT metabolized | Compound NOT metabolized | Compound NOT metabolized | Compound NOT metabolized | Compound NOT metabolized | Compound NOT metabolized | Compound NOT metabolized | Compound NOT metabolized | Compound NOT metabolized | Compound NOT metabolized | Compound NOT metabolized | Compound NOT metabolized | Compound metabolized | Compound metabolized | Compound NOT metabolized | Compound metabolized | Compound NOT metabolized
